Patent publication US12539292B2, “BRM targeting compounds and associated methods of use” (Arvinas Operations, Inc., priority 2018, dated 2026)

Biological target: T1, BRM (Homo sapiens, UniProt P51531)
T1 construct: In-Cell Western Screen of BRM Degradation in SW1573 Cells; endogenous in cells; host or cells: SW1573
Experiment: In-cell Western screen of BRM degradation in SW1573 cells (Dmax and DC50)
Assay type: cell-based
Conditions: BRM degradation, SW1573 cells; for DC50: read-out: DC50; for Dmax: when tested at the top concentration of between 0.3 and 10 μM, read-out: Dmax (%) (% degraded)
Method in brief: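 SW1573 cells were treated overnight (18-20 hours) with compound at 0.1% final DMSO. They were then PFA-fixed, permeabilised with Triton X-100 and immunostained with 800 nm/680 nm secondary antibodies. BRM signal was quantified by LI-COR in-cell Western imaging to derive Dmax and DC50.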

T1 sequence (P51531 whole entry): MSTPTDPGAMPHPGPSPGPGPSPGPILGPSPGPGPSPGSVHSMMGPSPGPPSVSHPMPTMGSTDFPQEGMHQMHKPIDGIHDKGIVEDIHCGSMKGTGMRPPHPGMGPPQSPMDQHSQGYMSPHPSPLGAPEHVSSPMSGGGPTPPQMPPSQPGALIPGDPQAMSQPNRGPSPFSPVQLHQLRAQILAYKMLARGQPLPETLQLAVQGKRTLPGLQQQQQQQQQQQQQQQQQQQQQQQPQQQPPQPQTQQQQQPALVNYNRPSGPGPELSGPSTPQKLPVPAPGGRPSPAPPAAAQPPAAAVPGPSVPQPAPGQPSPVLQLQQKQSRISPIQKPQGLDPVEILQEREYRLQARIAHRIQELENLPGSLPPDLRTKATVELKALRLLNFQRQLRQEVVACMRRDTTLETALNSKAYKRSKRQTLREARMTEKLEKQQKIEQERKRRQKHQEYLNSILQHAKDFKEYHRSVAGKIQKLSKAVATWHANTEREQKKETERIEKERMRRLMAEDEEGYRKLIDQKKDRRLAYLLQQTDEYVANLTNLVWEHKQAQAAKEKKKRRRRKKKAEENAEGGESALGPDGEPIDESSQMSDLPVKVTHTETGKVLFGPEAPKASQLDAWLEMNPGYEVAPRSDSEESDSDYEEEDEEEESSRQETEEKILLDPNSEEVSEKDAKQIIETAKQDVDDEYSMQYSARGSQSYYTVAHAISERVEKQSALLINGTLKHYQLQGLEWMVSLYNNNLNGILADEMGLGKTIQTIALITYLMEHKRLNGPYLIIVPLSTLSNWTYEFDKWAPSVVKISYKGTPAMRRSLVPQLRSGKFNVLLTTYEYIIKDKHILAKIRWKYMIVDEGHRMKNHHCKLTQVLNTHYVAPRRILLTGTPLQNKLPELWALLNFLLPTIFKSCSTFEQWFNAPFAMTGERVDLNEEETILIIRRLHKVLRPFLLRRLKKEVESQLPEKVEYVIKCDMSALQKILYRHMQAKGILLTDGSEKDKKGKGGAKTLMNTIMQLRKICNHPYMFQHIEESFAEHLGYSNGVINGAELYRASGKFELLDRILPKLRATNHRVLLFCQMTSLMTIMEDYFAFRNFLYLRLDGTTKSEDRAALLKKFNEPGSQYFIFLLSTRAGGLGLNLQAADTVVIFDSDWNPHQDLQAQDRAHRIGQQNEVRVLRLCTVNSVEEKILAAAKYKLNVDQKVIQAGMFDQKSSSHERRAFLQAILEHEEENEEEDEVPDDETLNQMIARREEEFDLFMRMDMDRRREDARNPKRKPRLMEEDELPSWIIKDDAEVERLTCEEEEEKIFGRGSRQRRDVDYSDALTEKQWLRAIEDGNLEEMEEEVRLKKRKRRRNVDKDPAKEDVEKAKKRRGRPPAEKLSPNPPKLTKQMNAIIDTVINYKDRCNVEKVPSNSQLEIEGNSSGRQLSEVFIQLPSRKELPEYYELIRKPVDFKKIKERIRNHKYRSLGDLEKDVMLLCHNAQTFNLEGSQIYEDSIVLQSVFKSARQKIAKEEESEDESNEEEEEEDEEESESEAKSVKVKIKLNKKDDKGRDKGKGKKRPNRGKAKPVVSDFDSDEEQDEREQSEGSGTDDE

Row | SMILES | DC50 [nM] | Dmax [%]
1 | Cc1nccn1-c1ccc([C@H](C)NC(=O)[C@@H]2C[C@@H](O)CN2C(=O)[C@H](c2cc(OCCN3CCN(CCOc4cc(N5C6CCC5CN(c5cc(-c7ccccc7O)nnc5N)C6)ccn4)CC3)no2)C(C)C)cc1 [compound 75, (2S,4R)-1-((2S)-2-(3-(2-(4-(2-((4-(3-(3-amino-6-(2-hydroxyphenyl)pyridazin-4-yl)-3,8-diazabicyclo[3.2.1]octan-8-yl)pyridin-2-yl)oxy)ethyl)piperazin-1-yl)ethoxy)isoxazol-5-yl)-3-methylbutanoyl)-4-hydroxy-N-((S)-1-(4-(2-methyl-1H-imidazol-1-yl)phenyl)ethyl)pyrrolidine-2-carboxamide] | 10 to 30 | > 75
2 | Cc1nccn1-c1ccc([C@H](C)NC(=O)[C@@H]2C[C@@H](O)CN2C(=O)[C@@H](c2cc(OCCN3CCN(CCOc4cc(N5C6CCC5CN(c5cc(-c7ccccc7O)nnc5N)C6)ccn4)CC3)no2)C(C)C)cc1 [compound 76, (2S,4R)-1-((2R)-2-(3-(2-(4-(2-((4-(3-(3-amino-6-(2-hydroxyphenyl)pyridazin-4-yl)-3,8-diazabicyclo[3.2.1]octan-8-yl)pyridin-2-yl)oxy)ethyl)piperazin-1-yl)ethoxy)isoxazol-5-yl)-3-methylbutanoyl)-4-hydroxy-N-((S)-1-(4-(2-methyl-1H-imidazol-1-yl)phenyl)ethyl)pyrrolidine-2-carboxamide] | < 2.5 | > 75
3 | Cc1ncsc1-c1ccc([C@H](C)NC(=O)[C@@H]2C[C@@H](O)CN2C(=O)[C@@H](c2cc(OCCOc3ccc(C(C)n4cc(-c5cc(-c6ccccc6O)nnc5N)cn4)cc3)no2)C(C)C)cc1 (stereo partly drawn) [compound 81, (2S,4R)-1-((2R)-2-(3-(2-(4-(1-(4-(3-amino-6-(2-hydroxyphenyl)pyridazin-4-yl)-1H-pyrazol-1-yl)ethyl)phenoxy)ethoxy)isoxazol-5-yl)-3-methylbutanoyl)-4-hydroxy-N-((S)-1-(4-(4-methylthiazol-5-yl)phenyl)ethyl)pyrrolidine-2-carboxamide] | < 2.5 | > 75
4 | Cc1ncsc1-c1ccc([C@H](C)NC(=O)[C@@H]2C[C@@H](O)CN2C(=O)[C@@H](c2cc(OCCOc3ccc(C(C)n4cc(-c5cc(-c6ccccc6O)nnc5N)cn4)cn3)no2)C(C)C)cc1 (stereo partly drawn) [compound 82, (2S,4R)-1-((2R)-2-(3-(2-((5-(1-(4-(3-amino-6-(2-hydroxyphenyl)pyridazin-4-yl)-1H-pyrazol-1-yl)ethyl)pyridin-2-yl)oxy)ethoxy)isoxazol-5-yl)-3-methylbutanoyl)-4-hydroxy-N-((S)-1-(4-(4-methylthiazol-5-yl)phenyl)ethyl)pyrrolidine-2-carboxamide] | < 2.5 | > 75
5 | Cc1ncsc1-c1ccc([C@H](C)NC(=O)[C@@H]2C[C@@H](O)CN2C(=O)[C@@H](c2cc(OCCN3CCN(Cc4ccc(C(C)n5cc(-c6cc(-c7ccccc7O)nnc6N)cn5)cc4)CC3)no2)C(C)C)cc1 (stereo partly drawn) [compound 83, (2S,4R)-1-((2R)-2-(3-(2-(4-(4-(1-(4-(3-amino-6-(2-hydroxyphenyl)pyridazin-4-yl)-1H-pyrazol-1-yl)ethyl)benzyl)piperazin-1-yl)ethoxy)isoxazol-5-yl)-3-methylbutanoyl)-4-hydroxy-N-((S)-1-(4-(4-methylthiazol-5-yl)phenyl)ethyl)pyrrolidine-2-carboxamide] | < 2.5 | > 75
6 | Cc1ncsc1-c1ccc([C@H](C)NC(=O)[C@@H]2C[C@@H](O)CN2C(=O)[C@@H](c2cc(OC/C=C/c3ccc(O[C@H]4C[C@H](Oc5cc(N6C7CCC6CN(c6cc(-c8ccccc8O)nnc6N)C7)ccn5)C4)cn3)no2)C(C)C)cc1 [compound 86, (2S,4R)-1-((2R)-2-(3-(((E)-3-(5-((1r,3R)-3-((4-(3-(3-amino-6-(2-hydroxyphenyl)pyridazin-4-yl)-3,8-diazabicyclo[3.2.1]octan-8-yl)pyridin-2-yl)oxy)cyclobutoxy)pyridin-2-yl)allyl)oxy)isoxazol-5-yl)-3-methylbutanoyl)-4-hydroxy-N-((S)-1-(4-(4-methylthiazol-5-yl)phenyl)ethyl)pyrrolidine-2-carboxamide] | < 2.5 | > 75
7 | Cc1ncsc1-c1ccc([C@H](C)NC(=O)[C@@H]2C[C@@H](O)CN2C(=O)[C@@H](c2cc(OCCN3CCN(CCCCN4CCOC5(CCN(c6cc(-c7ccccc7O)nnc6N)CC5)C4)CC3)no2)C(C)C)cc1 [compound 91, (2S,4R)-1-((R)-2-(3-(2-(4-(4-(9-(3-amino-6-(2-hydroxyphenyl)pyridazin-4-yl)-1-oxa-4,9-diazaspiro[5.5]undecan-4-yl)butyl)piperazin-1-yl)ethoxy)isoxazol-5-yl)-3-methylbutanoyl)-4-hydroxy-N-((S)-1-(4-(4-methylthiazol-5-yl)phenyl)ethyl)pyrrolidine-2-carboxamide] | < 2.5 | > 75
8 | Cc1ncsc1-c1ccc([C@H](C)NC(=O)[C@@H]2C[C@@H](O)CN2C(=O)[C@@H](c2cc(OCCN3CCC4(CC3)CC(OCCN3CCOC5(CCN(c6cc(-c7ccccc7O)nnc6N)CC5)C3)C4)no2)C(C)C)cc1 [compound 93, (2S,4R)-1-((R)-2-(3-(2-(2-(2-(9-(3-amino-6-(2-hydroxyphenyl)pyridazin-4-yl)-1-oxa-4,9-diazaspiro[5.5]undecan-4-yl)ethoxy)-7-azaspiro[3.5]nonan-7-yl)ethoxy)isoxazol-5-yl)-3-methylbutanoyl)-4-hydroxy-N-((S)-1-(4-(4-methylthiazol-5-yl)phenyl)ethyl)pyrrolidine-2-carboxamide] | < 2.5 | > 75
9 | Cc1ncsc1-c1ccc([C@H](CO)NC(=O)[C@@H]2C[C@@H](O)CN2C(=O)[C@@H](c2cc(OCCN3CCN(CCOc4cc(N5C6CCC5CN(c5cc(-c7ccccc7O)nnc5N)C6)ccn4)CC3)no2)C(C)C)cc1 [compound 100, (2S,4R)-1-((2R)-2-(3-(2-(4-(2-((4-(3-(3-amino-6-(2-hydroxyphenyl)pyridazin-4-yl)-3,8-diazabicyclo[3.2.1]octan-8-yl)pyridin-2-yl)oxy)ethyl)piperazin-1-yl)ethoxy)isoxazol-5-yl)-3-methylbutanoyl)-4-hydroxy-N-((R)-2-hydroxy-1-(4-(4-methylthiazol-5-yl)phenyl)ethyl)pyrrolidine-2-carboxamide] | < 2.5 | > 75
10 | Cc1ncsc1-c1ccc([C@@H](NC(=O)[C@@H]2C[C@@H](O)CN2C(=O)[C@@H](c2cc(OCCN3CCN(CCOc4cc(N5C6CCC5CN(c5cc(-c7ccccc7O)nnc5N)C6)ccn4)CC3)no2)C(C)C)C(F)F)cc1 [compound 102, (2S,4R)-1-((2R)-2-(3-(2-(4-(2-((4-(3-(3-amino-6-(2-hydroxyphenyl)pyridazin-4-yl)-3,8-diazabicyclo[3.2.1]octan-8-yl)pyridin-2-yl)oxy)ethyl)piperazin-1-yl)ethoxy)isoxazol-5-yl)-3-methylbutanoyl)-N-((R)-2,2-difluoro-1-(4-(4-methylthiazol-5-yl)phenyl)ethyl)-4-hydroxypyrrolidine-2-carboxamide] | < 2.5 | > 75
